Values after ≈ are worked out from the molar mass of the structure shown. Values joined by “and” are separate entries in the source; they are usually repeats but may differ in a detail not shown here. Equal entries are not always repeated. Each block holds one compound with its values, some of them ahead of it.
Key:
Assay in all cases: ≥ marks a high value that may be exact or a test limit, other limits are often not marked, values filed in µg/mL are converted to µM
Candida albicans = test system: Candida albicans
[1] = test system: Pseudomonas aeruginosa ATCC 27853
[2] = test system: Staphylococcus aureus ATCC 49476
Staphylococcus aureus MR = test system: Staphylococcus aureus MR
[3] = test system: Aspergillus flavus KCTC 6905
[4] = test system: Aspergillus fumigatus KCTC 6145
[5] = test system: Candida krusei CCARM 14017
[6] = test system: Candida parapsilosis CCARM 14016
[7] = test system: Candida tropicalis KCTC 7221
[8] = test system: Fusarium verticillioides KCTC 6149
[9] = test system: Trichosporon beigelii KCTC 7707
[10] = test system: Acinetobacter baumannii ATCC 7978
[11] = test system: Enterococcus faecium E007
[12] = test system: Klebsiella pneumoniae WGLW2
[13] = test system: Staphylococcus aureus ATCC 29231
[14] = test system: Staphylococcus aureus MW2
[15] = test system: Candida albicans ATCC 10231
[16] = test system: Cryptococcus neoformans ATCC 32264
[17] = test system: Escherichia coli ATCC 25922
Escherichia coli = test system: Escherichia coli
[18] = test system: Salmonella enterica subsp. enterica serovar Enteritidis
Salmonella sp. = test system: Salmonella sp.
[19] = test system: Staphylococcus aureus ATCC 29213
[20] = test system: Staphylococcus aureus ATCC 43300
Yersinia enterocolitica = test system: Yersinia enterocolitica
[21] = test system: Aeromonas veronii ATCC 35624
Aeromonas veronii CL0901 = test system: Aeromonas veronii CL0901
[22] = test system: Aeromonas veronii X-1-06909
[23] = test system: Candida albicans CMCC 98001
[24] = test system: Escherichia coli CVCC 1515
[25] = test system: Escherichia coli CVCC 195
[26] = test system: Escherichia coli CVCC 25922
[27] = test system: Escherichia coli CVCC O157
[28] = test system: Pseudomonas aeruginosa CICC 21630
[29] = test system: Salmonella enterica subsp. enterica serovar Enteritidis CVCC 3377
[30] = test system: Salmonella enterica subsp. enterica serovar Pullorum CVCC 1789
[31] = test system: Salmonella enterica subsp. enterica serovar Pullorum CVCC 1809
[32] = test system: Salmonella enterica subsp. enterica serovar Pullorum CVCC 533
[33] = test system: Salmonella enterica subsp. enterica serovar Typhimurium ATCC 14028
[34] = test system: Staphylococcus aureus ATCC 25923
[35] = test system: Staphylococcus aureus ATCC 546
[36] = test system: Staphylococcus hyicus NCTC 10350
Staphylococcus hyicus = test system: Staphylococcus hyicus

Compound: CC[C@H](C)[C@H](NC(=O)[C@H](C)NC(=O)[C@H](CCCCN)NC(=O)CNC(=O)[C@H](C)NC(=O)[C@H](CO)NC(=O)[C@H](Cc1ccccc1)NC(=O)[C@H](CC(C)C)NC(=O)CNC(=O)CNC(=O)[C@@H](NC(=O)[C@@H](NC(=O)[C@H](Cc1cnc[nH]1)NC(=O)[C@H](Cc1cnc[nH]1)NC(=O)[C@@H](NC(=O)[C@@H](N)Cc1ccccc1)[C@@H](C)CC)[C@@H](C)CC)[C@@H](C)CC)C(=O)N[C@@H](Cc1cnc[nH]1)C(=O)N[C@@H](CCCN=C(N)N)C(=O)N[C@@H](Cc1cnc[nH]1)C(=O)N[C@@H](Cc1cnc[nH]1)C(=O)N[C@@H](CCCN=C(N)N)C(=O)N[C@@H](CCCN=C(N)N)C(=O)N[C@@H](CCCN=C(N)N)C(=O)N[C@@H](CCCN=C(N)N)C(=O)N[C@@H](CCCN=C(N)N)C(=O)O [FIHHIIGGLFSAGKAIHRHHRRRRR]
MIC (Candida albicans): 42.3 µM (≈ 128 µg/mL)
MIC [1]: 84.5 µM (≈ 256 µg/mL)
MIC [2]: ≥ 42.3 µM
MIC (Staphylococcus aureus MR): ≥ 169 µM

Compound: CC[C@H](C)[C@H](NC(=O)CNC(=O)[C@H](CCC(N)=O)NC(=O)[C@H](C)NC(=O)[C@@H](NC(=O)[C@H](CCCCN)NC(=O)[C@H](CCCCN)NC(=O)[C@H](CC(C)C)NC(=O)[C@H](C)NC(=O)[C@H](CC(N)=O)NC(=O)[C@H](C)NC(=O)CN)C(C)C)C(=O)N[C@@H](Cc1cnc[nH]1)C(=O)N[C@@H](CCC(=O)O)C(=O)N[C@@H](C)C(=O)N[C@H](C(=O)N[C@@H](CCCCN)C(=O)N[C@@H](CC(C)C)C(=O)N[C@H](C(=O)N[C@@H](CC(N)=O)C(=O)N[C@@H](CC(N)=O)C(=O)N[C@@H](Cc1cnc[nH]1)C(=O)N[C@H](C(=O)N[C@@H](CCC(N)=O)C(N)=O)C(C)C)[C@@H](C)CC)[C@@H](C)CC [GANALKKVAQGIHEAIKLINNHVQ]
MIC [3]: ≥ 32 µM and 12 µM
MIC [4]: 24 µM and 16 µM
MIC [5]: 6 µM and 4 µM
MIC [6]: ≥ 64 µM
MIC [7]: 2 µM and 1.5 µM
MIC [8]: 24 µM and 16 µM
MIC [9]: 2 µM (≈ 5.13 µg/mL)

Compound: CC[C@H](C)[C@H](NC(=O)[C@H](CCCCN)NC(=O)[C@H](CCCCN)NC(=O)[C@H](CC(C)C)NC(=O)[C@@H](NC(=O)[C@H](CCCCN)NC(=O)[C@H](Cc1c[nH]c2ccccc12)NC(=O)[C@@H](N)CC(C)C)[C@@H](C)CC)C(=O)N[C@@H](Cc1c[nH]c2ccccc12)C(=O)N[C@@H](CCCN=C(N)N)C(=O)N[C@H](C(=O)N[C@@H](CC(C)C)C(=O)N[C@@H](CCCCN)C(=O)N[C@@H](CC(N)=O)C(=O)N[C@@H](Cc1c[nH]c2ccccc12)C(=O)N[C@@H](CCCN=C(N)N)C(=O)O)C(C)C [LWKILKKIWRVLKNWR]
MIC [10]: ≥ 58.7 µM
MIC [11]: ≥ 58.7 µM
MIC [12]: 29.4 µM (≈ 64 µg/mL)
MIC [13]: 14.7 µM (≈ 32 µg/mL)
MIC [14]: 14.7 µM (≈ 32 µg/mL)

Second part, led by results:

MIC [15]: 50 µM (≈ 70.7 µg/mL)
MIC [16]: 25 µM (≈ 35.3 µg/mL)
MIC [17]: > 50 µM
MIC (Escherichia coli): 44.7 µM (≈ 63.2 µg/mL)
MIC [1]: > 50 µM
MIC [18]: ≥ 50 µM
MIC (Salmonella sp.): 30 µM (≈ 42.4 µg/mL)
MIC [19]: > 50 µM
MIC [20]: > 50 µM
MIC (Yersinia enterocolitica): ≥ 50 µM
Compound: CC[C@H](C)[C@H](NC(=O)[C@H](CCC(N)=O)NC(=O)[C@@H](N)CCCN=C(N)N)C(=O)N[C@@H](CCCN=C(N)N)C(=O)N[C@@H](CCCN=C(N)N)C(=O)N[C@@H](Cc1c[nH]c2ccccc12)C(=O)N[C@@H](Cc1c[nH]c2ccccc12)C(=O)N[C@@H](CCC(N)=O)C(=O)N[C@@H](Cc1c[nH]c2ccccc12)C(N)=O [RQIRRWWQW]

MIC [23]: ≥ 50 µM
MIC [24]: 1.56 µM (≈ 4 µg/mL)
MIC [25]: 3.12 µM (≈ 7.99 µg/mL)
MIC [26]: 3.12 µM (≈ 7.99 µg/mL)
MIC [27]: 3.12 µM (≈ 7.99 µg/mL)
MIC [28]: 12.5 µM (≈ 32 µg/mL)
MIC [29]: 0.781 µM (≈ 2 µg/mL)
MIC [30]: 6.25 µM (≈ 16 µg/mL)
MIC [31]: 3.12 µM (≈ 7.99 µg/mL)
MIC [32]: 6.25 µM (≈ 16 µg/mL)
MIC [33]: 6.25 µM (≈ 16 µg/mL)
MIC [34]: 12.5 µM (≈ 32 µg/mL)
MIC [20]: 12.5 µM (≈ 32 µg/mL)
MIC [35]: 6.25 µM (≈ 16 µg/mL)
MIC [36]: 25 µM (≈ 63.9 µg/mL)
MIC (Staphylococcus hyicus): 12.5 µM (≈ 32 µg/mL)
Compound: CC(C)[C@H](N)C(=O)N[C@@H](Cc1ccccc1)C(=O)N[C@@H](C)C(=O)N[C@@H](Cc1c[nH]c2ccccc12)C(=O)N[C@@H](CC(N)=O)C(=O)N[C@H](C(=O)N[C@H]1CSSC[C@@H](C(=O)N[C@@H](Cc2cnc[nH]2)C(=O)N[C@@H](CCCN=C(N)N)C(=O)N[C@@H](CCCN=C(N)N)C(=O)N[C@@H](C)C(=O)N[C@@H](CC(N)=O)C(N)=O)NC(=O)[C@H](C(C)C)NC(=O)[C@H](CCCN=C(N)N)NC(=O)[C@H](C(C)C)NC(=O)[C@H](C(C)C)NC(=O)[C@H](CC(N)=O)NC(=O)[C@H](CCCN=C(N)N)NC(=O)[C@H](Cc2ccc(O)cc2)NC(=O)[C@H](C(C)C)NC1=O)C(C)C [VFAWNVCVYRNVVRVCHRRAN]
MIC [21]: 6.25 µM (≈ 16 µg/mL)
MIC (Aeromonas veronii CL0901): 12.5 µM (≈ 32 µg/mL)
MIC [22]: 12.5 µM (≈ 32 µg/mL)
